Data set [1] relates to Candida albicans. Description: Antifungal activity against Candida albicans WH-D by twofold serial broth dilution assay. Type of data set: functional. For orientation: Dilution methods test growth across graded concentrations, often in twofold steps.
Data set [2] has as its system Cryptococcus neoformans. Description: Antifungal activity against Cryptococcus neoformans ATCC 32264 by twofold serial broth dilution assay. The data set is classed as functional.
In data set [3] the test system is Trichophyton mentagrophytes. Put plainly: Antifungal activity against Trichophyton mentagrophytes ATCC 9972 by twofold serial broth dilution assay. Type of data set: functional.
The nature of data set [4]: Toxicity in iv dosed ICR mouse assessed as morbidity and lethality after 14 days. Type of data set: organism-based. Conditions: in vivo.
The subject of data set [5] is Candida albicans. Put plainly: Antifungal activity against Candida albicans NIH B311 after 24 hrs by […]. The data set is classed as functional. Conditions: NIH B311, 24 h. On the technique in general: A growth-free zone around the sample is the usual read-out of agar diffusion tests.
Data set [6] relates to Aspergillus fumigatus. Description: Antifungal activity against Aspergillus fumigatus ATCC 26934 by twofold serial broth dilution assay. The data set is classed as functional.
In data set [7] the test system is Aspergillus flavus. Put plainly: Antifungal activity against Aspergillus flavus ATCC 9170 by twofold serial broth dilution assay. Type of data set: functional.
In data set [8] the test system is Candida albicans. Put plainly: Antifungal activity against Candida albicans ATCC 10231 by twofold serial broth dilution assay. The data set is classed as functional.
Data set [9] deals with Candida albicans. Description: Antifungal activity against Candida albicans NIH B311 infected in ICR mouse assessed as reduction in number of recovered colony forming units at 0.5 mg/kg, ip administered after 7 hrs inoculation measured after 16 hrs. The settings on record: route intraperitoneal. Also noted: scale not given: the % may be the effect or the level left. The data set is classed as functional.

For data set [10], the system named is Saccharomyces cerevisiae. Description: Antifungal activity against Saccharomyces cerevisiae ATCC 9763 by twofold serial broth dilution assay. The data set is classed as functional.
Data set [11] in a line: Toxicity in ip dosed ICR mouse assessed as morbidity and lethality after 14 days. The data set is classed as organism-based. The settings on record: in vivo.

Molecules are shown by their SMILES. Converted amounts (≈) assume the structure as drawn.

For `C[C@@H]1[C@H](O)[C@@H](C)/C=C/C=C/C=C/C=C/C=C/C=C/C=C/[C@H](O[C@@H]2O[C@H](C)[C@@H](O)[C@H](N)[C@@H]2O)C[C@@H]2O[C@](O)(C[C@@H](O)C[C@@H](O)[C@H](O)CC[C@@H](O)C[C@@H](O)CC(=O)O[C@H]1C)C[C@H](O)[C@H]2C(=O)O` [AMPHOTERICIN B], the MIC (in general, the lowest concentration found to suppress growth) amounted to 0.78 µg/mL (≈ 0.844 µM) in data set [1]; 1.56 µg/mL (≈ 1.69 µM) in [2]; 50 µg/mL (≈ 54.1 µM) in data set [3]; 0.39 µg/mL (≈ 0.422 µM) in data set [5]; 100 µg/mL (≈ 108 µM) in [6]; 50 µg/mL (≈ 54.1 µM) in data set [7]. In addition, the MIC in data set [8] was determined as 1.56 µg/mL (≈ 1.69 µM); in [10], 25 µg/mL (≈ 27.1 µM). For the same molecule, the 50% lethal dose (LD50) – broadly, the dose at which mortality reaches 50% – at 336 h in [4] was determined as 1 mg/kg. Also, the Activity in data set [9] is 97.5%.

For `C[C@@H]1CC[C@@]2(OC1)O[C@H]1C[C@H]3[C@@H]4CC=C5C[C@@H](O[C@@H]6O[C@H](CO)[C@@H](O[C@@H]7O[C@@H](C)[C@H](O)[C@@H](O)[C@H]7O)[C@H](O)[C@H]6O[C@@H]6O[C@@H](C)[C@H](O)[C@@H](O)[C@H]6O)CC[C@]5(C)[C@H]4CC[C@]3(C)[C@H]1[C@@H]2C` [DIOSCIN], the MIC in data set [1] is 6.25 µg/mL (≈ 7.19 µM); in data set [2], 25 µg/mL (≈ 28.8 µM); in [3] it was 6.25 µg/mL (≈ 7.19 µM); in data set [5] it was 1.56 µg/mL (≈ 1.8 µM); in [6], 50 µg/mL (≈ 57.5 µM); in data set [7], 100 µg/mL (≈ 115 µM). For the same molecule, the MIC was 3.12 µg/mL (≈ 3.59 µM) in data set [8] and 25 µg/mL (≈ 28.8 µM) in [10]. Moreover, the LD50 at 336 h in data set [4] stood at 10 mg/kg; in data set [11], 38 mg/kg.

For `C[C@@H]1CC[C@@]2(OC1)O[C@H]1C[C@H]3[C@@H]4CC=C5C[C@@H](O[C@@H]6O[C@H](CO)[C@@H](O[C@@H]7O[C@@H](C)[C@H](O[C@@H]8O[C@@H](C)[C@H](O)[C@@H](O)[C@H]8O)[C@@H](O)[C@H]7O)[C@H](O)[C@H]6O[C@@H]6O[C@@H](C)[C@H](O)[C@@H](O)[C@H]6O)CC[C@]5(C)[C@H]4CC[C@]3(C)[C@H]1[C@@H]2C` [PENNOGENIN RAHAMNOSYL CHACOTRIOSIDE], the minimal inhibitory concentration (MIC) in data set [1] was 12.5 µg/mL (≈ 12.3 µM); in data set [2] it was 12.5 µg/mL (≈ 12.3 µM); in data set [3], 3.12 µg/mL (≈ 3.07 µM); in data set [5], 6.25 µg/mL (≈ 6.16 µM); in data set [6] it was 100 µg/mL (≈ 98.5 µM); in [7] it was 100 µg/mL (≈ 98.5 µM). Besides, the minimum inhibitory concentration (MIC) in data set [8] and in [10] was 12.5 µg/mL (≈ 12.3 µM) in each case. Moreover, the values for the LD50 at 336 h in [4] and in data set [11] were 5 mg/kg and 28 mg/kg, respectively.
